# Assay results taken from patent US20050209278A1, “Piperidinyl- and piperazinyl-sulfonylmethyl hydroxamic acids and their use as protease inhibitors” (priority 2002, published 2005).
# Molecular target: T1, MMP-9 (Homo sapiens, UniProt P14780)
# T1 construct: made in house; host or cells: MMP-9-transfected HT1080 cells (spent media)
# Assay: In vitro MMP inhibition, Ki determination (fluorogenic substrate II)
# Type: biochemical
# Settings: value not in parenthesis
# Summary of the method: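 HT1080-derived MMP-9, activated with APMA, trypsin or MMP-3, incubated 1 hr at room temperature with inhibitor and 4 μM fluorogenic substrate II (at or below Km) in pH 7.5 Tris/NaCl/CaCl2 buffer; ex 330/em 420 nm. Ki from Morrison-equation regression, without substrate correction.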
# T1 sequence (P14780 107-707 limits assumed): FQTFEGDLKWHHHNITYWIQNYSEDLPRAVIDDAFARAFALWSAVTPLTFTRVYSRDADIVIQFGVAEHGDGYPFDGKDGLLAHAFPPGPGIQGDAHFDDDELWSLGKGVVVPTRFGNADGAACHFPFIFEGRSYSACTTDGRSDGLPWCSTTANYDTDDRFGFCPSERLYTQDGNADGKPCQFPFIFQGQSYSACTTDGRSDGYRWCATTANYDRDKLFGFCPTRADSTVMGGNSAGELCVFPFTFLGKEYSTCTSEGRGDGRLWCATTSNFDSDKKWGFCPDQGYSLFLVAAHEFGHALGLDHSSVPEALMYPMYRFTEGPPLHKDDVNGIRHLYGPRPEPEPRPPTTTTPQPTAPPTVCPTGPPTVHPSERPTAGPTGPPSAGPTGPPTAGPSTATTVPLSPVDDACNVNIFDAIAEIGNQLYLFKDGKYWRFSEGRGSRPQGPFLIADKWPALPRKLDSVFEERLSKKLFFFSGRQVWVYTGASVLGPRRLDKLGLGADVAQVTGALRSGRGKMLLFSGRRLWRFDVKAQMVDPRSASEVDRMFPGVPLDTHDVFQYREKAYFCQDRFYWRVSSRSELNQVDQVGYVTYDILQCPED
row,Compound,Ki [nM]
1,CCCCc1ccc(C2CCN(S(=O)(=O)C3(C(=O)NO)CCN(CCOC)CC3)CC2)s1 [Example 55],0.35
2,O=C(NO)C1(S(=O)(=O)N2CCN(c3ccc(COCC(F)(F)C(F)F)cc3)CC2)CCOCC1 [Example 71],13
3,O=C(NO)C1(S(=O)(=O)N2CCN(c3ccc(COCC(F)(F)F)cc3)CC2)CCOCC1 [Example 72],2.86
4,O=C(NO)C1(S(=O)(=O)N2CCN(c3ccc(OC4CCC4)c(F)c3)CC2)CCOCC1 [Example 73],7.97
5,O=C(NO)C1(S(=O)(=O)N2CCN(c3ccc(OCc4ccccc4)cn3)CC2)CCOCC1 [Example 74],4.8
6,O=C(NO)C1(S(=O)(=O)N2CCN(c3ccc(-c4ccccc4)cc3)CC2)CCOCC1 [Example 76],0.5
7,O=C(NO)C1(S(=O)(=O)N2CCN(c3ccc(CCC(F)(F)F)cc3)CC2)CCOCC1 [Example 77],0.8
8,CCN1CCC(C(=O)NO)(S(=O)(=O)N2CCN(c3ccc(OCCCC(F)(F)F)cc3)CC2)CC1 [Example 78],22.8
9,CC(C)COc1ccc(N2CCN(S(=O)(=O)C3(C(=O)NO)CCOCC3)CC2)cc1Cl [Example 79],41.5
10,O=C(NO)C1(S(=O)(=O)N2CCN(c3ccc(OCCCC(F)(F)F)cc3F)CC2)CCOCC1 [Example 81],29.2
11,O=C(NO)C1(S(=O)(=O)N2CCN(c3cccc(C(F)(F)F)c3)CC2)CCOCC1 [Example 82],249
12,O=C(NO)C1(S(=O)(=O)N2CCN(c3ccc(OCCCC(F)(F)F)cn3)CC2)CCOCC1 [Example 83],4.21
13,CCCCOc1ccc(N2CCN(S(=O)(=O)C3(C(=O)NO)CCN(C(C)(C)C)CC3)CC2)c(F)c1 [Example 84],17.9
14,CCCCOc1ccc(N2CCN(S(=O)(=O)C3(C(=O)NO)Cc4ccccc4C3)CC2)nc1 [Example 85],1.17
15,COCCN1CCC(C(=O)NO)(S(=O)(=O)N2CCN(c3ccc(OCCCCF)cc3)CC2)CC1 [Example 88],2.18
16,O=C(NO)C1(S(=O)(=O)N2CCN(c3ccc(OCCCCF)cc3)CC2)CCOCC1 [Example 89],2.23
17,CCCCOc1ccc(N2CCN(S(=O)(=O)C3(C(=O)NO)CCOCC3)CC2)c(F)c1 [Example 90],2.15
18,CCCCc1ccc(N2CCN(S(=O)(=O)C3(C(=O)NO)CCOCC3)CC2)c(F)c1 [Example 91],0.452
19,CCCCOc1ccc(N2CCN(S(=O)(=O)C3(C(=O)NO)CCN(c4nc5ccccc5s4)CC3)CC2)cc1 [Example 93],60.1
20,O=C(NO)C1(S(=O)(=O)N2CCN(c3ccc(C(F)(F)F)cn3)CC2)CCOCC1 [Example 94],14.3
21,CCCCCc1ccc(N2CCN(S(=O)(=O)C3(C(=O)NO)CCN(c4ncccn4)CC3)CC2)nc1 [Example 95],0.99
22,CCCCc1ccc(N2CCN(S(=O)(=O)C3(C(=O)NO)CCN(c4cccnc4)CC3)CC2)nc1 [Example 96],0.21
23,CCCCOc1ccc(N2CCN(S(=O)(=O)C3(C(=O)NO)CCN(C(=O)OCC(C)(C)C)CC3)CC2)cc1 [Example 97],21.9
24,C#CCOC(=O)N1CCC(C(=O)NO)(S(=O)(=O)N2CCN(c3ccc(OCCCC)cc3)CC2)CC1 [Example 98],1.24
25,CCCCc1ccc(N2CCN(S(=O)(=O)C3(C(=O)NO)CCN(c4ncccn4)CC3)CC2)nc1 [Example 99],0.16
26,CCCCOc1ccc(N2CCN(S(=O)(=O)C3(C(=O)NO)CCOCC3)CC2)nc1 [Example 100],0.3
27,CCCCOc1ccc(N2CCN(S(=O)(=O)C3(C(=O)NO)CCN(c4ccc(Cl)c(Cl)c4)CC3)CC2)cc1 [Example 250],73.9

# Same assay, conditions: value outside parentheses
row,Compound,Ki [nM]
1,CCCCOc1ccc(N2CCN(S(=O)(=O)C3(C(=O)NO)CCN(c4ccc(Cl)cc4)CC3)CC2)cc1 [Example 251],57.4
2,CCCCOc1ccc(N2CCN(S(=O)(=O)C3(C(=O)NO)CCN(Cc4ccco4)CC3)CC2)cc1 [Example 252],1.43
3,CCCCOc1ccc(N2CCN(S(=O)(=O)C3(C(=O)NO)CCN(C(N)=O)CC3)CC2)cc1 [Example 253],1.57
4,CCCCOc1ccc(N2CCN(S(=O)(=O)C3(C(=O)NO)CCN(C(=O)N(C)C)CC3)CC2)cc1 [Example 254],0.63
5,CCCCOc1ccc(N2CCN(S(=O)(=O)C3(C(=O)NO)CCN(C(=O)c4ccccc4)CC3)CC2)cc1 [Example 255],2.54
6,CCCCOc1ccc(N2CCN(S(=O)(=O)C3(C(=O)NO)CCN(c4ccc(C(F)(F)F)cn4)CC3)CC2)cc1 [Example 257],37
7,O=C(NO)C1(S(=O)(=O)N2CCN(c3ccc(SC(F)(F)F)cc3)CC2)CCS(=O)(=O)CC1 [Example 258],457
8,CCCCOc1ccc(N2CCN(S(=O)(=O)C3(C(=O)NO)CCN(C(=O)c4ccncc4)CC3)CC2)cc1 [Example 259],1.35
9,CCCCOc1ccc(N2CCN(S(=O)(=O)C3(C(=O)NO)CCN(C(=O)C4CC4)CC3)CC2)cc1 [Example 260],0.946
10,CCc1ccc(N2CCN(S(=O)(=O)C3(C(=O)NO)CCCC3)CC2)nc1 [Example 261],1.53
11,CCc1ccc(N2CCN(S(=O)(=O)C3(C(=O)NO)CCCCC3)CC2)nc1 [Example 263],0.634
12,CCCCOc1ccc(N2CCN(S(=O)(=O)C3(C(=O)NO)CCN(c4ccccc4)CC3)CC2)cc1 [Example 264],20.4
13,CCCCOc1ccc(N2CCN(S(=O)(=O)C3(C(=O)NO)CCN(C(=O)CC(F)(F)F)CC3)CC2)cc1 [Example 265],2.14
14,CCCCOc1ccc(N2CCN(S(=O)(=O)C3(C(=O)NO)CCN(C(=O)c4cccnc4)CC3)CC2)cc1 [Example 266],0.957
15,CCCCOc1ccc(N2CCN(S(=O)(=O)C3(C(=O)NO)CCN(C(=O)C(C)(C)C)CC3)CC2)cc1 [Example 267],2.54
16,CCCCOc1ccc(N2CCN(S(=O)(=O)C3(C(=O)NO)CCN(C(=O)COC)CC3)CC2)cc1 [Example 268],1.08
17,CCCCOc1ccc(N2CCN(S(=O)(=O)C3(C(=O)NO)CCN(C=O)CC3)CC2)cc1 [Example 269],0.953
18,CCCCc1ccc(N2CCN(S(=O)(=O)C3(C(=O)NO)CCN(CCOC)CC3)CC2)nc1 [Example 270],0.205
19,CCCCOc1ccc(N2CCN(S(=O)(=O)C3(C(=O)NO)CCN(C(=O)CO)CC3)CC2)cc1 [Example 271],1.49
20,CCCCCc1ccc(N2CCN(S(=O)(=O)C3(C(=O)NO)CCN(C4CC4)CC3)CC2)cc1 [Example 272],0.542
21,CCCCOc1ccc(N2CCN(S(=O)(=O)C3(C(=O)NO)CCN(C(=O)C(C)C)CC3)CC2)cc1 [Example 273],1.21
22,CCCCOc1ccc(N2CCN(S(=O)(=O)C3(C(=O)NO)CCN(C(=O)CC)CC3)CC2)cc1 [Example 274],1.66
23,CCCCOc1ccc(N2CCN(S(=O)(=O)C3(C(=O)NO)CCN(c4ccc(C)nn4)CC3)CC2)cc1 [Example 275],0.807
24,CCCCOc1ccc(N2CCN(S(=O)(=O)C3(C(=O)NO)CCNCC3)CC2)cc1 [Example 276],9.39

row,Compound,Ki [nM]
1,CCCCOc1ccc(N2CCN(S(=O)(=O)C3(C(=O)NO)CCN(C(=O)c4ccccn4)CC3)CC2)cc1 [Example 277],0.95
2,CCCCOc1ccc(N2CCN(S(=O)(=O)C3(C(=O)NO)CCN(C(=O)CCCC)CC3)CC2)cc1 [Example 278],2
3,CC(C)CCOc1ccc(N2CCN(S(=O)(=O)C3(C(=O)NO)CCOCC3)CC2)cc1 [Example 279],3.07
4,CCCCOc1ccc(N2CCN(S(=O)(=O)C3(C(=O)NO)CCN(C)CC3)CC2)cc1 [Example 280],3.61
5,CCCCOc1ccc(N2CCN(S(=O)(=O)C3(C(=O)NO)CCN(c4ccc(Cl)nn4)CC3)CC2)cc1 [Example 281],2.16
6,CCCCOc1ccc(N2CCN(S(=O)(=O)C3(C(=O)NO)CCN(C(C)=O)CC3)CC2)cc1 [Example 282],0.098
7,CCCCOc1ccc(N2CCN(S(=O)(=O)C3(C(=O)NO)CCN(c4ccc(O)nn4)CC3)CC2)cc1 [Example 283],0.69
8,CCCCOc1ccc(N2CCN(S(=O)(=O)C3(C(=O)NO)CCN(CCOC)CC3)CC2)c(F)c1 [Example 284],0.99
9,CCCCOc1ccc(N2CCN(S(=O)(=O)C3(C(=O)NO)CCN(Cc4ccccc4)CC3)CC2)cc1F [Example 285],9.83
10,CCCCOc1ccc(N2CCN(S(=O)(=O)C3(C(=O)NO)CCNCC3)CC2)cc1F [Example 286],22.3
11,COCCN1CCC(C(=O)NO)(S(=O)(=O)N2CCN(c3ccc(Oc4ccccc4)cc3)CC2)CC1 [Example 287],13.9
12,CCCCOc1ccc(N2CCN(S(=O)(=O)C3(C(=O)NO)CCN(C(=O)CN)CC3)CC2)cc1 [Example 292],3.51
13,CCCCOc1ccc(N2CCN(S(=O)(=O)C3(C(=O)NO)CCN(Cc4cccnc4)CC3)CC2)cc1F [Example 293],2.21
14,CCCCOc1ccc(N2CCN(S(=O)(=O)C3(C(=O)NO)CCN(c4ccc(C)cc4)CC3)CC2)cc1 [Example 295],17.1
15,CCCCOc1ccc(N2CCN(S(=O)(=O)C3(C(=O)NO)CCN(c4ccc(C)cc4)CC3)CC2)cc1F [Example 296],47.6
16,COCCOc1ccc(N2CCN(S(=O)(=O)C3(C(=O)NO)CCN(C4CC4)CC3)CC2)cc1F [Example 297],19.5
17,CCCCOc1ccc(N2CCN(S(=O)(=O)C3(C(=O)NO)CCN(CC4CC4)CC3)CC2)cc1 [Example 298],2.99
18,Cc1cc(N2CCN(S(=O)(=O)C3(C(=O)NO)CCOCC3)CC2)ccc1OC(C)C [Example 299],43.6
19,CS(=O)(=O)c1ccc(N2CCN(S(=O)(=O)C3(C(=O)NO)CCOCC3)CC2)cc1 [Example 300],142
20,CCCCOc1ccc(N2CCN(S(=O)(=O)C3(C(=O)NO)CCN(C4CC4)CC3)CC2)cc1 [Example 301],9.11
21,C#CCN1CCC(C(=O)NO)(S(=O)(=O)N2CCN(c3ccc(OCCCC)cc3)CC2)CC1 [Example 303],1.48
22,CCCCCc1ccc(C2CCN(S(=O)(=O)C3(C(=O)NO)CCOCC3)CC2)nc1 [Example 305],0.133
23,O=C(NO)C1(S(=O)(=O)N2CCC(c3ccc(Br)cn3)CC2)CCOCC1 [Example 306],1.03
24,O=C(NO)C1(S(=O)(=O)N2CCC(c3ccc(-c4ccc(F)cc4F)cn3)CC2)CCOCC1 [Example 308],11.3
